# Results published in PubChem BioAssay AID2060485 (Molecular Pharmacology Branch, DTP, NCI, 2025).
# Tested on: A375 multi-cell spheroids with HUVEC/MSC, viability
# Test: Anticancer human tumor A375 cell line growth inhibition [GQUAD];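 note: spheroids exposed to compounds for seven days before readout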
# Details: for IC50: curve of first compound; for viability, T/C: stronger effect = lower value
# From the text: DNA G-quadruplex Stabilizer Agents in Combinations in Complex Spheroids
# A high-throughput screen of multi-cell type tumor spheroids was designed to identify active combinations of DNA G-quadruplex stabilizer agents and targeted small molecules. Complex spheroids include a stromal component modeled by human endothelial cells (HUVEC) and fibroblasts modeled by human mesenchymal stem cells (MSCs). The concentration ranges selected for each drug and investigational agent were based upon clinically achievable concentrations if the clinical Cmax of the agent was known.
# Compounds. The drugs and investigational agents: pidnarulex (CX-5461; NSC782164), APTO-253 (NSC789042), BRACO-19 (NSC847499), peposertib (NSC802822), ceralasertib (NSC780249), elimusertib (NSC800525), camonsertib (NSC841442), AZD-1390 (NSC803789), olaparib (NSC753686), talazoparib (NSC767125), ART-558 (NSC835418), sotorasib (NSC818433), MRTX-1133 (NSC836407), SN-38 (NSC673596), topotecan (NSC609699), etoposide (NSC141540), doxorubicin (NSC123127), gemcitabine (NSC613327), 5-fluorouracil (NSC19893), paclitaxel (NSC125973), vemurafenib (NSC761431), panobinostat (NSC761190), R-306465 (JNJ-16241199; NSC773264), adavosertib (NSC754352), TP-3654 (NSC805149), carboplatin (NSC241240), KSQ-4279 (NSC840948), and staurosporine (NSC755774) were obtained from the National Cancer Institute (NCI) Developmental Therapeutics Program Chemical Repository (34). The FDA-approved anticancer drug set is available from the NCI Developmental Therapeutics Program. […] The stock solutions were prepared in dimethyl sulfoxide (DMSO, Sigma-Aldrich, St. Louis, MO, cat. D2650) at 800-fold the tested concentration and stored at -70 degrees C prior to their use. All drugs and investigational agents were tested over a range starting from a high concentration at or near the clinical Cmax and decreasing in half-log increments. If the clinical Cmax for an agent had not been determined, the highest concentration tested was 10 microM.
# 2.3 Cell Culture. All cells were maintained in an incubator at 37 degrees C and 5% CO2 with 95% humidity. The PDC lines were cultured according to standard operating procedures established by the NCI PDMR. All PDCs were thawed and cultured in Matrigel-coated flasks prepared with a working solution of 1X Ham's F-12 nutrient mix, without supplementation (Invitrogen, cat. 11765054), 100 U/mL penicillin-streptomycin (Invitrogen, cat. 15140122), and 2.5% Matrigel (Corning Inc., cat. 354248) for the first three passages. The 857933-349-R-J2-PDC line was cultured in 6C/Colon 1B media, which includes advanced DMEM/F-12 (Thermo Fisher Scientific, cat. 12634028), 10 mM HEPES (Thermo Fisher Scientific, cat. 15630080), 1X GlutaMAX supplement (Thermo Fisher Scientific, cat. 35050061), 0.1 mg/mL primocin (InvivoGen, cat. ant-pm-2), 10% defined fetal bovine serum, heat inactivated (HyClone Laboratories Inc., cat. SH30070.03HI), 50% L-WRN conditioned media (ATCC, cat. CRL-3276), 1.25 mM N-Acetyl-L-cysteine (Sigma-Aldrich, cat. A9165), 10 mM nicotinamide (Sigma-Aldrich, cat. N0636), 1X B-27 supplement (Thermo Fisher Scientific, cat. 17504044), 1X N-2 supplement (Thermo Fisher Scientific, cat. 17502048), 10 microM Y-27632 dihydrochloride (Tocris Bioscience, cat. 1254), and 50 ng/mL human EGF recombinant protein (Thermo Fisher Scientific, cat. PHG0311). The 485176-168-R4-J1-PDC line was cultured in Panc media, which includes all 6C/Colon 1B media components plus 100 ng/mL human FGF-10 (Thermo Fisher Scientific, cat. 100-26), 500 nM SB-431542 (Selleckchem, cat. S1067), and gastrin (Tocris, cat. 3006).
# […]
# [1] = second compound 0.0316 µM, first compound 0.0316 µM
# [2] = second compound 0.0316 µM, first compound 0.1 µM
# [3] = second compound 0.0316 µM, first compound 0.316 µM
# [4] = second compound 0.0316 µM, first compound 1 µM
# [5] = second compound 0.0316 µM, first compound 3.16 µM
# [6] = second compound 0.0316 µM, first compound 10 µM
# [7] = second compound 0.1 µM, first compound 0.0316 µM
# [8] = second compound 0.1 µM, first compound 0.1 µM
# [9] = second compound 0.1 µM, first compound 0.316 µM
# [10] = second compound 0.1 µM, first compound 1 µM
# [11] = second compound 0.1 µM, first compound 3.16 µM
# [12] = second compound 0.1 µM, first compound 10 µM
# [13] = second compound 0.316 µM, first compound 0.0316 µM
# [14] = second compound 0.316 µM, first compound 0.1 µM
# [15] = second compound 0.316 µM, first compound 0.316 µM
# [16] = second compound 0.316 µM, first compound 1 µM
# [17] = second compound 0.316 µM, first compound 3.16 µM
# [18] = second compound 0.316 µM, first compound 10 µM
# [19] = second compound 1 µM, first compound 0.0316 µM
# [20] = second compound 1 µM, first compound 0.1 µM
# [21] = second compound 1 µM, first compound 0.316 µM
# [22] = second compound 1 µM, first compound 1 µM
# [23] = second compound 1 µM, first compound 3.16 µM
# [24] = second compound 1 µM, first compound 10 µM
# [25] = second compound 3.16 µM, first compound 0.0316 µM
# [26] = second compound 3.16 µM, first compound 0.1 µM
# [27] = second compound 3.16 µM, first compound 0.316 µM
# [28] = second compound 3.16 µM, first compound 1 µM
# [29] = second compound 3.16 µM, first compound 3.16 µM
# [30] = second compound 3.16 µM, first compound 10 µM
# [31] = second compound 10 µM, first compound 0.0316 µM
# [32] = second compound 10 µM, first compound 0.1 µM
# [33] = second compound 10 µM, first compound 0.316 µM
# [34] = second compound 10 µM, first compound 1 µM
# [35] = second compound 10 µM, first compound 3.16 µM
# [36] = second compound 10 µM, first compound 10 µM
compound,measurement,setting,value
CC1COCCN1c1cc(C2(S(C)(=N)=O)CC2)nc(-c2ccnc3[nH]ccc23)n1 (stereo unspecified) + CN(C)c1ccc(Nc2c3ccc(NC(=O)CCN4CCCC4)cc3nc3cc(NC(=O)CCN4CCCC4)ccc23)cc1,IC50,second compound 0.0316 µM,6.09 µM
same,IC50,second compound 0.1 µM,5.86 µM
same,IC50,second compound 0.316 µM,6.26 µM
same,IC50,second compound 1 µM,7.3 µM
same,IC50,second compound 3.16 µM,7.46 µM
same,IC50,second compound 10 µM,6.4 µM
same,"viability, T/C",[1],102%
same,"viability, T/C",[2],105%
same,"viability, T/C",[3],102%
same,"viability, T/C",[4],108%
same,"viability, T/C",[5],68.5%
same,"viability, T/C",[6],36%
same,"viability, T/C",[7],108%
same,"viability, T/C",[8],104%
same,"viability, T/C",[9],106%
same,"viability, T/C",[10],102%
same,"viability, T/C",[11],67.8%
same,"viability, T/C",[12],34.5%
same,"viability, T/C",[13],105%
same,"viability, T/C",[14],101%
same,"viability, T/C",[15],107%
same,"viability, T/C",[16],107%
same,"viability, T/C",[17],71.9%
same,"viability, T/C",[18],35%
same,"viability, T/C",[19],106%
same,"viability, T/C",[20],95.7%
same,"viability, T/C",[21],114%
same,"viability, T/C",[22],108%
same,"viability, T/C",[23],68%
same,"viability, T/C",[24],43.2%
same,"viability, T/C",[25],118%
same,"viability, T/C",[26],95.8%
same,"viability, T/C",[27],97.2%
same,"viability, T/C",[28],108%
same,"viability, T/C",[29],78.3%
same,"viability, T/C",[30],40.3%
same,"viability, T/C",[31],95.5%
same,"viability, T/C",[32],98.3%
same,"viability, T/C",[33],101%
same,"viability, T/C",[34],96.8%
same,"viability, T/C",[35],64.8%
same,"viability, T/C",[36],40.6%
COc1ccc([C@@H](O)c2cc(-c3ncnc4cc(N5CCOCC5)ccc34)c(F)cc2Cl)nn1 + CN(C)c1ccc(Nc2c3ccc(NC(=O)CCN4CCCC4)cc3nc3cc(NC(=O)CCN4CCCC4)ccc23)cc1,IC50,second compound 0.0316 µM,> 10 µM
same,IC50,second compound 0.1 µM,> 10 µM
same,IC50,second compound 0.316 µM,> 10 µM
same,IC50,second compound 1 µM,> 10 µM
same,IC50,second compound 3.16 µM,> 10 µM
same,IC50,second compound 10 µM,> 10 µM
same,"viability, T/C",[1],106%
same,"viability, T/C",[2],103%
same,"viability, T/C",[3],106%
same,"viability, T/C",[4],105%
same,"viability, T/C",[5],91.9%
same,"viability, T/C",[6],74.5%
same,"viability, T/C",[7],107%
same,"viability, T/C",[8],111%
same,"viability, T/C",[9],100%
same,"viability, T/C",[10],108%
same,"viability, T/C",[11],95.6%
same,"viability, T/C",[12],71.5%
same,"viability, T/C",[13],109%
same,"viability, T/C",[14],101%
same,"viability, T/C",[15],104%
same,"viability, T/C",[16],99.7%
same,"viability, T/C",[17],93%
same,"viability, T/C",[18],70.7%
same,"viability, T/C",[19],103%
same,"viability, T/C",[20],101%
same,"viability, T/C",[21],108%
same,"viability, T/C",[22],111%
same,"viability, T/C",[23],97.6%
same,"viability, T/C",[24],78.9%
same,"viability, T/C",[25],104%
same,"viability, T/C",[26],99.3%
same,"viability, T/C",[27],106%
same,"viability, T/C",[28],102%
same,"viability, T/C",[29],90.5%
same,"viability, T/C",[30],83.3%
same,"viability, T/C",[31],110%
same,"viability, T/C",[32],93.6%
same,"viability, T/C",[33],98.5%
same,"viability, T/C",[34],97.7%
same,"viability, T/C",[35],77%
same,"viability, T/C",[36],64.2%
O=C(c1cc(Cc2n[nH]c(=O)c3ccccc23)ccc1F)N1CCN(C(=O)C2CC2)CC1 + CN(C)c1ccc(Nc2c3ccc(NC(=O)CCN4CCCC4)cc3nc3cc(NC(=O)CCN4CCCC4)ccc23)cc1,IC50,second compound 0.0316 µM,> 10 µM
same,IC50,second compound 0.1 µM,> 10 µM
same,IC50,second compound 0.316 µM,> 10 µM
same,IC50,second compound 1 µM,> 10 µM
same,IC50,second compound 3.16 µM,> 10 µM
same,IC50,second compound 10 µM,> 10 µM
same,"viability, T/C",[1],104%
same,"viability, T/C",[2],95.7%
same,"viability, T/C",[3],113%
same,"viability, T/C",[4],99.9%
same,"viability, T/C",[5],103%
same,"viability, T/C",[6],81.1%
same,"viability, T/C",[7],104%
same,"viability, T/C",[8],102%
same,"viability, T/C",[9],103%
same,"viability, T/C",[10],100%
same,"viability, T/C",[11],102%
same,"viability, T/C",[12],75.6%
same,"viability, T/C",[13],101%
same,"viability, T/C",[14],101%
same,"viability, T/C",[15],102%
same,"viability, T/C",[16],105%
same,"viability, T/C",[17],97.6%
same,"viability, T/C",[18],77.6%
same,"viability, T/C",[19],97.1%
same,"viability, T/C",[20],102%
same,"viability, T/C",[21],93.8%
same,"viability, T/C",[22],103%
same,"viability, T/C",[23],102%
same,"viability, T/C",[24],86.8%
same,"viability, T/C",[25],100%
same,"viability, T/C",[26],97.5%
same,"viability, T/C",[27],100%
same,"viability, T/C",[28],101%
same,"viability, T/C",[29],103%
same,"viability, T/C",[30],73.6%
same,"viability, T/C",[31],100%
same,"viability, T/C",[32],96.4%
same,"viability, T/C",[33],98.8%
same,"viability, T/C",[34],103%
same,"viability, T/C",[35],92.9%
same,"viability, T/C",[36],66.7%
